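Briefly, cells in 96-well plates were exposed to five compound concentrations for 48 h, and endpoints were estimated by linear interpolation. GI50 is the concentration that inhibits growth by half.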 The source made the active and inactive calls. Rule as the data show it: active = GI50 up to about 1.1 µM and inactive = higher.
Experiments:
Experiment in all cases: NCI-60 cell line screen, 48 h
HCC 2998 = system: HCC 2998
HOP-92 = system: HOP-92
NCI-H522 = system: NCI-H522
NCI-H460 = system: NCI-H460
NCI/ADR-RES = system: NCI/ADR-RES
SF-295 = system: SF-295
MCF7 = system: MCF7
HCT-15 = system: HCT-15
SF-268 = system: SF-268
U-251 = system: U-251
SNB-19 = system: SNB-19
RXF 393 = system: RXF 393
COLO 205 = system: COLO 205
HL-60 = system: HL-60
SK-MEL-28 = system: SK-MEL-28
Hs-578T = system: Hs-578T
PC-3 = system: PC-3
CCRF-CEM = system: CCRF-CEM
MDA-MB-231 = system: MDA-MB-231
SF-539 = system: SF-539

SMILES	GI50 (HCC 2998)	GI50 (HOP-92)	GI50 (NCI-H522)	GI50 (NCI-H460)	GI50 (NCI/ADR-RES)	GI50 (SF-295)	GI50 (MCF7)	GI50 (HCT-15) [µM]	GI50 (SF-268)	GI50 (U-251)	GI50 (SNB-19)	GI50 (RXF 393)	GI50 (COLO 205)	GI50 (HL-60)	GI50 (SK-MEL-28)	GI50 (Hs-578T)	GI50 (PC-3)	GI50 (CCRF-CEM)	GI50 (MDA-MB-231)	GI50 (SF-539)
C[C@]12CC[C@H]3[C@@H](CC=C4C[C@@H](N5CCCC5)CC[C@@]43C)[C@@H]1C[C@H](N1CCCCC1)[C@@H]2O	31.6 µM (inactive)	83.8 µM (inactive)	> 100 µM (inactive)	> 100 µM (inactive)	> 100 µM (inactive)	> 100 µM (inactive)	> 100 µM (inactive)	33.8	> 100 µM (inactive)	> 100 µM (inactive)	> 100 µM (inactive)	> 100 µM (inactive)	93.3 µM (inactive)	28.2 µM (inactive)	45.3 µM (inactive)	> 100 µM (inactive)	> 100 µM (inactive)	> 100 µM (inactive)	> 100 µM (inactive)	39.7 µM (inactive)
CCN(CC)c1ccc(NC(=S)NN(C)C)cc1	> 10 µM (inactive)	> 10 µM (inactive)	> 10 µM (inactive)	> 10 µM (inactive)	> 10 µM (inactive)	> 10 µM (inactive)	> 10 µM (inactive)	> 10	> 10 µM (inactive)	> 10 µM (inactive)	> 10 µM (inactive)	> 10 µM (inactive)	> 10 µM (inactive)	> 10 µM (inactive)	> 10 µM (inactive)	> 10 µM (inactive)	> 10 µM (inactive)	> 10 µM (inactive)	> 10 µM (inactive)	> 10 µM (inactive)
NC(CCC(=O)NC(CSCC1C(=O)Nc2ccccc21)C(=O)NCC(=O)O)C(=O)O (stereo not given)	5.75 µM (inactive)	4.16 µM (inactive)	0.968 µM (active)	14.8 µM (inactive)	7.53 µM (inactive)	15.5 µM (inactive)	3.75 µM (inactive)	4.72	5.92 µM (inactive)	7.62 µM (inactive)	44.3 µM (inactive)	0.855 µM (active)	5.12 µM (inactive)	23.6 µM (inactive)	6.58 µM (inactive)	48 µM (inactive)	21.6 µM (inactive)	5.27 µM (inactive)	7.53 µM (inactive)	6 µM (inactive)
CCn1c(-c2ccc(F)cc2)nc2c1C(=O)c1ccccc1C2=O	> 100 µM (inactive)	> 100 µM (inactive)	> 100 µM (inactive)	> 100 µM (inactive)	> 100 µM (inactive)	> 100 µM (inactive)	> 100 µM (inactive)	> 100	> 100 µM (inactive)	> 100 µM (inactive)	> 100 µM (inactive)	54 µM (inactive)	> 100 µM (inactive)	> 100 µM (inactive)	> 100 µM (inactive)	> 100 µM (inactive)	> 100 µM (inactive)	> 100 µM (inactive)	> 100 µM (inactive)	> 100 µM (inactive)
CO[C@@H]1C[C@H]2[C@@H]3CC[C@H]([C@@H](C)CO)[C@@]3(C)CC[C@@H]2[C@@]2(C)CC[C@H]3C[C@]312	33.1 µM (inactive)	18.9 µM (inactive)	19.7 µM (inactive)	20.9 µM (inactive)	24.9 µM (inactive)	30.5 µM (inactive)	16.2 µM (inactive)	33.3	67 µM (inactive)	14.6 µM (inactive)	53.6 µM (inactive)	19.2 µM (inactive)	17.6 µM (inactive)	25.2 µM (inactive)	27.6 µM (inactive)	27.2 µM (inactive)	22.6 µM (inactive)	40.2 µM (inactive)	28.3 µM (inactive)	43.1 µM (inactive)
C=CCNC1=C2C[C@@H](C)C[C@@H](OC)[C@H](OC(=O)CN)[C@H](C)/C=C(\C)[C@@H](OC(N)=O)[C@H](OC)/C=C\C=C(/C)C(=O)NC(=CC1=O)C2=O	0.27 µM (active)	3.41 µM (inactive)	0.706 µM (active)	0.504 µM (active)	36.1 µM (inactive)	0.488 µM (active)	0.162 µM (active)	3.49	5.73 µM (inactive)	1.29 µM (inactive)	5.4 µM (inactive)	1.95 µM (inactive)	0.204 µM (active)	1.69 µM (inactive)	2.05 µM (inactive)	7.73 µM (inactive)	0.4 µM (active)	1.27 µM (inactive)	3.71 µM (inactive)	0.883 µM (active)
Cc1cc(=O)oc2c(CN3CCCCC3)c(O)ccc12	> 100 µM (inactive)	> 100 µM (inactive)	> 100 µM (inactive)	> 100 µM (inactive)	> 100 µM (inactive)	> 100 µM (inactive)	> 100 µM (inactive)	> 100	> 100 µM (inactive)	> 100 µM (inactive)	> 100 µM (inactive)	> 100 µM (inactive)	> 100 µM (inactive)	> 100 µM (inactive)	> 100 µM (inactive)	> 100 µM (inactive)	> 100 µM (inactive)	> 100 µM (inactive)	> 100 µM (inactive)	> 100 µM (inactive)

From ChEMBL document CHEMBL1201862, “PubChem BioAssay data set” (2004)
